From article PMC6946680, “Modulation of brain cation-Cl^− cotransport via the SPAK kinase inhibitor ZT-1a” (Nature Communications, 2020)
“And” between values parts separate entries of the source, which are not always exact repeats. Equal values may be shown once. Read-outs that look alike come from different tables or passages of the source.

Experiments:
[1] = system: humans; details: cited from earlier work
[2] = system: KCC1 pThr927/pThr983; assay: Choroid plexus KCC1 phospho-IP/immunoblot in rat IVH model; type: in vivo
[3] = system: pJNK; assay: Immunoblot of phospho-JNK in ischemic mouse brain; type: in vivo
Text: (§1) Cytosol and crude membrane protein
(§2) Expressions of Na+-K+ ATPase
(§3) respectively. d Densitometric analyses of immunoblots.

[4] = system: tSPAK tOSR1; assay: Immunoblot of total SPAK/OSR1 in ischemic mouse brain membrane and cytosol fractions; type: in vivo; details: Cytosol; IL; single samples
[5] = system: mouse model of ischemic stroke (tMCAO); assay: Adhesive-removal test after tMCAO; type: in vivo; details: for Adhesive removal time: Fig 7c, individual mice #1-#7
[6] = ZT-1a content in plasma and brain of sham and tMCAO mice (LC-MS/MS); type: in vivo, mouse; details: for plasma ZT-1a concentration: Fig 6e; for plasma ZT-1a concentration / Brain tissue ZT-1a concentration: individual animals; for Brain tissue ZT-1a concentration: Fig 6f
[7] = ZT-1a pharmacokinetic properties in naive mice; type: in vivo, ICR mice; details: mouse, plasma; for MRT inf: read-out: MRT(0-∞)
Procedure: 1 Supplemental Table 3. ZT-1a pharmacokinetic (PK) properties in naïve mice.
2 ZT-1a pharmacokinetics were determined following a single 5 mg/kg intravenous (IV) dose and a single 10 mg/kg oral (PO) dose in
3 ICR mice (N = 3 at each time point).
Samples were subjected to drug assay by LC-MS/MS, and data were analyzed by WinNonlin V6.3. Tmax =
5 time of maximum plasma concentration, Cmax = maximum plasma concentration, AUC = area under the curve (measure of exposure),
6 T1/2 = half life, CL = plasma clearance, Vz = volume of distribution, MRT, mean residence time; F = oral bioavailability.

[8] = system: pERK1/2; assay: Immunoblot of phospho-ERK1/2 in ischemic mouse brain; type: in vivo; details: for pERK/Na K pump (fold veh-CL): Membrane
Text: as §1, §2, §3

[9] = system: human fibroblast cells; assay: Cell volume measurement (calcein-AM) under hyperosmotic stress, human fibroblasts; details: hypertonic 515 mOsm; BMT or ZT-1a
[10] = system: mouse model of ischemic stroke (tMCAO); assay: Ex vivo T2-weighted MRI and DTI of brains 7 days post tMCAO; type: in vivo
[11] = 7 days post stroke, ZT-1a 5.0 mg/kg

Cc1cc(C(C#N)c2ccc(Cl)cc2)c(Cl)cc1NC(=O)c1cc(I)cc(I)c1O (stereo not shown) [Closantel, reference compound]
toxicity contraindicating use in humans [1]: retinal toxicity

Cc1cc(C(C#N)c2ccc(Cl)cc2)c(Cl)cc1NC(=O)c1cc(Cl)ccc1O (stereo not shown) [ZT-1a, 5-chloro-N-(5-chloro-4-((4-chlorophenyl)(cyano)methyl)-2-methylphenyl)-2-hydroxybenzamide]
KCC1 pThr983 / Actin ([2]; rat CPe 48 h post IVH + 1a, replicates): 0.273 and 0.737 and 0.782 and 0.302 and 0.649 and 0.721
KCC1 pThr927 / Actin ([2]; rat CPe 48 h post IVH + 1a, replicates (Fig 4 source data)): 0.027 and 0.029 and 0.034 and 0.025 and 0.037 and 0.024
reduction of post-IVH KCC1 phosphorylation at Thr927 ([2]; rat CPe, ICV ZT-1a): 12 fold
reduction of post-IVH KCC1 phosphorylation at Thr983 ([2]; rat CPe, ICV ZT-1a): 3.4 fold
pJNK/GAPDH (fold veh-CL) ([3]; Cytosol, CL, Fig S4d): 1.00 fold veh-CL and 1.48 fold veh-CL and 0.87 fold veh-CL and 0.76 fold veh-CL
pJNK/Na K pump (fold veh-CL) ([3]; Membrane, IL, Fig S4d): 2.05 fold veh-CL and 1.64 fold veh-CL and 1.81 fold veh-CL and 1.40 fold veh-CL
p-JNK in ischemic brains ([3]; ZT-1a 5.0 mg/kg): no marked inhibition
tSPAK tOSR1/GAPDH (fold veh-CL) [4]: 1.10 fold veh-CL and 1.64 fold veh-CL and 1.23 fold veh-CL and 1.65 fold veh-CL and 0.87 fold veh-CL
Adhesive removal time ([5]; Day 1): 15 seconds and 27 seconds and 70 seconds and 120 seconds and 28 seconds (2×) and 85 seconds
Adhesive removal time ([5]; Day 3): 26 s and 16 s and 65 s and 29 s and 9 s and 41 s and 62 s
Adhesive removal time ([5]; Day 5): 36 s and 27 s and 56 s and 35 s and 15 s and 28 s and 24 s
Adhesive removal time ([5]; Day 7): 8 seconds (2×) and 14 seconds and 57 seconds and 19 seconds and 16 seconds and 28 seconds
Adhesive removal time ([5]; Day -1 (baseline)): 25 seconds and 8 seconds and 7 seconds (2×) and 11 seconds and 13 seconds and 22 seconds
adhesive contact and removal tests ([5]; ZT-1a 5.0 mg/kg, vs vehicle-control mice): significantly improved motor function
ZT-1a concentration in CL and IL hemispheres of ischemic brains relative to sham brains ([6]; 2 h after 5 mg/kg i.p.): ~ 1.8 fold
plasma ZT-1a levels in ischemic versus non-ischemic sham mice ([6]; 2 h after 5 mg/kg i.p.): indistinguishable
plasma ZT-1a concentration ([6]; Sham mice): 329.00 ng/mL and 282.00 ng/mL and 324.00 ng/mL and 520.00 ng/mL and 751.00 ng/mL and 743.08 ng/mL and 457.88 ng/mL and 359.25 ng/mL and 143.14 ng/mL and 588.55 ng/mL and 379.00 ng/mL
plasma ZT-1a concentration ([6]; tMCAO mice): 1494.00 ng/mL and 655.00 ng/mL and 82.00 ng/mL and 678.79 ng/mL and 587.05 ng/mL and 302.56 ng/mL and 827.38 ng/mL and 531.10 ng/mL and 662.00 ng/mL
Brain tissue ZT-1a concentration ([6]; sham, CL hemisphere): 221.00 ng/gm tissue and 107.00 ng/gm tissue and 97.00 ng/gm tissue and 50.00 ng/gm tissue and 133.00 ng/gm tissue and 120.00 ng/gm tissue and 67.00 ng/gm tissue and 61.00 ng/gm tissue and 77.00 ng/gm tissue and 131.00 ng/gm tissue
Brain tissue ZT-1a concentration ([6]; sham, IL hemisphere): 174.00 ng/gm tissue and 130.00 ng/gm tissue and 100.00 ng/gm tissue and 155.00 ng/gm tissue and 76.00 ng/gm tissue and 115.00 ng/gm tissue and 89.00 ng/gm tissue and 78.00 ng/gm tissue and 59.00 ng/gm tissue and 139.00 ng/gm tissue
Brain tissue ZT-1a concentration ([6]; tMCAO, CL hemisphere): 161.00 ng/gm tissue and 118.00 ng/gm tissue and 139.00 ng/gm tissue and 285.00 ng/gm tissue and 269.00 ng/gm tissue and 132.00 ng/gm tissue and 326.00 ng/gm tissue and 170.00 ng/gm tissue and 163.00 ng/gm tissue and 133.00 ng/gm tissue and 245.00 ng/gm tissue
Brain tissue ZT-1a concentration ([6]; tMCAO, IL hemisphere): 217.00 ng/gm tissue and 131.00 ng/gm tissue and 171.00 ng/gm tissue and 369.00 ng/gm tissue and 215.00 ng/gm tissue and 238.00 ng/gm tissue and 154.00 ng/gm tissue and 150.00 ng/gm tissue and 199.00 ng/gm tissue
penetration across the healthy BBB ([6]; normal naive mice): minimal
AUC ([7]; ICR, intravenous, 5 mg/kg, naive mice): 2340 ng·h/mL
half-life ([7]; ICR, intravenous, 5 mg/kg, naive mice, read-out: T1/2 (plasma half-life) (converted)): 1.8 h
half-life ([7]; ICR, iv, 5 mg/kg, IV 5 mg/kg, ICR mice, read-out: t1/2 (converted)): 1.8 h
bioavailability ([7]; ICR, oral, 10 mg/kg, naive mice): 2.2%
half-life ([7]; ICR, po, 10 mg/kg, PO 10 mg/kg, ICR mice, read-out: t1/2 (converted)): 2.6 h
AUC(0-inf) ([7]; IV 5 mg/kg, ICR mice): 2350 ng·h/mL
AUC(0-t) ([7]; IV 5 mg/kg, ICR mice): 2340 ng·h/mL
C0 ([7]; IV 5 mg/kg, ICR mice): 14900 ng/mL
Cmax ([7]; IV 5 mg/kg, ICR mice): 6910 ng/mL
Tmax ([7]; IV 5 mg/kg, ICR mice): 0.08 h
clearance ([7]; IV 5 mg/kg, ICR mice): 35.5 mL/min/kg
MRT inf ([7]; IV 5 mg/kg, ICR mice): 0.45 h
Vd ([7]; IV 5 mg/kg, ICR mice, read-out: Vz): 0.948 L/kg
AUC(0-inf) ([7]; PO 10 mg/kg, ICR mice): 105 ng·h/mL
AUC(0-t) ([7]; PO 10 mg/kg, ICR mice): 97.3 ng·h/mL
Cmax ([7]; PO 10 mg/kg, ICR mice): 94 ng/mL
Tmax ([7]; PO 10 mg/kg, ICR mice): 0.25 h
bioavailability ([7]; PO 10 mg/kg, ICR mice): 2.2%
MRT inf ([7]; PO 10 mg/kg, ICR mice): 3.3 h
pERK/GAPDH (fold veh-CL) ([8]; Cytosol, CL, Fig S4d): 1.33 fold veh-CL and 1.29 fold veh-CL and 0.75 fold veh-CL
pERK/Na K pump (fold veh-CL) ([8]; CL, Fig S4d): 1.45 fold veh-CL and 1.52 fold veh-CL and 1.76 fold veh-CL
pERK/Na K pump (fold veh-CL) ([8]; IL, Fig S4d): 1.27 fold veh-CL and 2.10 fold veh-CL and 1.54 fold veh-CL
p-ERK in ischemic brains ([8]; ZT-1a 5.0 mg/kg): no marked inhibition
regulatory volume increase (RVI) in human fibroblast cells [9]: absence of RVI
EC tract FA values in the IL hemisphere [10, 11]: undiminished
reduction of brain atrophy (% hemisphere shrinkage) [10, 11]: ~ 41%
reduction of stroke-induced lesion volume (T2-weighted MRI) [10, 11]: ~ 40%
EC FA value ([10]; Fig 7d, CL hemisphere, individual brains): 0.3452 and 0.2737 and 0.3976 and 0.3529 and 0.3132 and 0.3022 and 0.3144
EC FA value ([10]; Fig 7d, IL hemisphere, individual brains): 0.3284 and 0.2019 and 0.3515 and 0.3727 and 0.2854 and 0.2283 and 0.2974
% Shrinkage ([10]; Fig 7d, individual brains): 4.31% and 1.96% and 1.98% and 5.61% and 5.20% and 3.63% and 2.52%
Lesion volume (mm3) ([10]; Fig 7d, individual brains): 33.98 mm3 and 34.15 mm3 and 17.99 mm3 and 33.62 mm3 and 29.17 mm3 and 52.2 mm3 and 18.61 mm3
